# Reference: US12102631B2, “Quinolylnitrones for the treatment and prevention of a cerebral stroke or ischaemia” (ISQUAEMIA BIOTECH, S.L., priority 2018, dated 2024)
# Values joined by “and” are separate entries in the source; they are usually repeats but may differ in a detail not shown here. Equal entries are not always repeated.
# Key:
# [1] = Inhibition of linoleic acid peroxidation (AAPH, ILPO); format: biochemical; conditions: tested at 100 μM
# Experimental: Inhibition of Linoleic Acid Peroxidation.^32 For initiating the free radical, 2,2′-azobis(2-amidinopropane) dihydrochloride (AAPH) is used. The final solution in the UV cuvette consisted of ten microliters of the 16 mM linoleate sodium dispersion 0.93 mL of 0.05 M phosphate buffer, pH 7.4, thermostatted at 37° C. 50 μL of 40 mM AAPH solution was added as a free radical initiator at 37° C. under air and 10 μL of the tested compounds. The oxidation of linoleic acid sodium salt results a conjugated diene hydroperoxide. The reaction is monitored at 234 nm (Table 1).
# 3.3. Anti-lipid peroxidation activity of QNs. The water-soluble azo compound 2,2′-azobis(2-amidinopropane) dihydrochloride (AAPH) has been extensively used as a clean and controllable source of thermally produced alkyl peroxyl free radicals through spontaneous thermal decomposition. […] In the AAPH assay to determine the inhibition of the lipid peroxidation (ILPO), the highly reactive alkylperoxyl radicals are intercepted mainly by a hydrogen atom transfer from the antioxidant. As shown, QN23 presented limited value, where QNs 19, 22 and 24 presented very high values (Table 3).
# [2] = Hydroxyl radical scavenging (competition with DMSO); format: biochemical; conditions: tested at 100 μM
# Experimental: Hydroxyl Radicals Scavenging Activity.^32 The hydroxyl radicals were produced by the Fe^3+/ascorbic acid system. EDTA (0.1 mM), Fe^3+ (167 μM), DMSO (33 mM) in phosphate buffer (50 mM, pH 7.4), the tested compounds (0.1 mM) and ascorbic acid (10 mM) were mixed in test tubes. The solutions were incubated at 37° C. for 30 min. The reaction was stopped by trichloroacetic acid (17% w/v) (Table 1) and the % scavenging activity of the tested compounds for hydroxyl radicals was given.
# 3.2. Competition of QNs with DMSO for hydroxyl radicals. Among the ROS, the hydroxyl (·OH) free radical is possibly the most toxic, as it easily reacts with biological important molecules such as DNA, lipids or carbohydrates. Polyunsaturated fatty acids are found in high concentrations in the CNS, and are particularly vulnerable to free radicals attack. Thus, we tried to test the ability of our compound to scavenge hydroxyl radicals. […] Antioxidants with lipophilic character are needed to act as radical scavengers or as chain-breaking antioxidants in biological membranes.
# [3] = ABTS radical cation decolorization assay; format: biochemical; conditions: tested at 100 μM
# Experimental: ABTS^⋅+-decolorization assay in ethanolic solution for antioxidant activity.^32,35 ABTS is dissolved in water to a 2 mM concentration. ABTS radical cation (ABTS^⋅+) is produced by reacting the ABTS stock solution with 0.17 mM potassium persulfate in phosphate buffer (pH 7.4, 20 mM) and allowing the mixture to stand in the dark at room temperature for 12-16 h before use. For steady state measurements, […] ABTS^⋅+ was used. For the present study, the […] ABTS^⋅ solution (200 μL) was diluted with ethanol (790 μL) to an absorbance of 0.70 at 734 nm, equilibrated at room temperature, mixed with 10 μL of the tested compounds (stock solutions 10 mM) and the absorbance reading was taken at room temperature 1 min after the initial mixing. Trolox was used as a standard.
# 3.4. ABTS^⋅+ antioxidant activity of QNs. The ABTS^⋅+ radical cation, derived from the oxidation of 2,2′-azino-bis(3-ethylbenzothiazoline-6-sulphonic acid) (ABTS) by potassium persulfate, is a green-blue stable chromophore, which can be analyzed in the course of a decolorization assay. The addition of electron-donor antioxidants leads to ABTS^⋅+ reduction. The chemistry taking place involves the direct generation of the ABTS^⋅+ with no involvement of an intermediary radical. […] Again, and as shown, QN23 presented limited activity beside with 19, although the others nitrones had no activity (Table 3).
# [4] = tested on: primary neuronal cultures from rat cerebral cortex; experiment: Neuroprotection (MTT cell viability) in primary neuronal cultures exposed to oxygen-glucose deprivation (OGD); format: cell-based; conditions: Rattus norvegicus, 24 h recovery after 4 h OGD, R24 h = 0%, control = 100%
# Experimental: Primary neuronal cultures. Primary neuronal cultures from rat cerebral cortex were prepared as previously described.^54 All procedures associated with animal experiments were approved by the Ethics Committee of the Hospital Ramón y Cajal, Madrid (Spain). Cell suspensions from cerebral cortex were prepared from 16- to 17-day-old Sprague-Dawley rat embryos. Living cells in cell suspension were counted by trypan blue exclusion method. Cells were seeded on plastic multidishes precoated with 0.05 mg/mL poly-D-lysine at a density of 2.5×10^5 cells/cm^2 and were kept at 37° C. in a 6.5% CO2 atmosphere in high glucose Dulbecco's medium supplemented with 15% heat-inactivated (56° C. for 30 min) foetal calf serum. After 24 h, cultured cells were […] to induce experimental ischemia.^23 Cultured cells were washed and placed in glucose-free Dulbecco's medium (bubbled with 95% N2/5% CO2 for 30 min), and maintained in a humidified hypoxia chamber equipped with an oxygen and carbon dioxide control unit (Biospherix) at 6.5% CO2 and <0.1% O2 in N2 at 37° C. Cells were exposed to OGD for a period of 4 h (OGD 4 h). At the end of the OGD period, culture medium was replaced with oxygenated serum-free medium, and cells were placed and maintained in the normoxic incubator for 24 h to recovery (R24 h). In the neuroprotection experiments, the compounds were added at the onset of recovery period. Control cultures in Dulbecco's medium containing glucose were kept in the normoxic incubator for the same period of time as the OGD, and then medium (Dulbecco's/Ham's F12, 1:1 [vol/vol], 5 mg/mL glucose, 2 mM L-glutamine, and 1 mM sodium pyruvate, and supplemented with 100 μg/mL transferrin, 100 μM putrescine, 20 nM progesterone, 30 nM sodium selenite and 5 μg/mL insulin). Here, 6-7 day old cultured neurons were used in the experiments, and contained 90% β-III-tubulin-positive mature neurons, as described previously.^55
# Exposure of cell cultures to oxygen-glucose deprivation and treatments. Primary neuronal cultures were exposed to […]. Control experiments included the same amounts of vehicle (final concentration<0.5% ethanol). Nitrone 2 was used as reference compound for neuroprotection. The experimental procedures were blindly performed, assigning a random order to each assayed nitrone. Nitrones were analyzed independently four-eight times with different batch of cultures and each experiment was run in quadruplicate.
# Cell viability assay. Cell viability was evaluated by quantification of living, metabolically active cells, as determined by a colorimetric assay using the photometric reduction of 3-(4,5-dimethylthiazol-2-yl)-2,5-diphenyl tetrazolium bromide (MTT) (Roche) to a blue formazan product. The assay of living, metabolically active cells was performed by incubating with 0.2 mg/mL MTT in the culture medium for 1.5 h in an incubator at 37° C. in a 6.5% CO2 atm. After the incubation period, cells were lysed with an equal volume of 10 mM HCl and 10% SDS overnight. Values were quantified by absorbance (test 595 nm, reference 690 nm). Decreased MTT activity denotes impairment of mitochondrial function and is considered to be an index of cell damage. Primary neuronal cultures were collected at times indicated for MTT determination.
# Neuroprotection of compounds was evaluated by a cell viability assay. The neuroprotective effect of the compounds 5-32 was evaluated on primary neuronal cultures from cerebral cortex subjected to oxygen-glucose deprivation (OGD) to induce experimental ischemia. Afterwards, cultured neurons were placed and kept in normoxic and normoglycemic conditions to recovery. […]
# [5] = Interaction with the stable radical DPPH; format: biochemical; conditions: tested at 100 μM; reducing activity
# Experimental: Interaction of the nitrone with the Stable Radical 1,1-diphenyl-picrylhydrazyl (DPPH) To a solution of DPPH in absolute ethanol the appropriate volume of the compounds (0.1 mM final concentrations) dissolved in DMSO was added. The absorbance was recorded at 517 nm after 20 and 60 min at room temperature (Table 1).
# 3.1. Antioxidant activity of QNs using radical DPPH. […] This purple colour generally disappears in the presence of an antioxidant due to the reduction of the DPPH radical by single electron transfer (SET) from the antioxidant converted it to colourless/bleached product. […] In this assay, we measured the initial absorbance of DPPH and the absorbance once the potential antioxidant was added. The antioxidant activity was expressed as the percentage of reducing activity.
# [6] = tested on: Carrageenan-induced rat paw edema; experiment: Inhibition of Carrageenan-induced rat paw edema; format: in vivo, Fisher 344 rats; conditions: 0.01 mmol/kg intraperitoneally; 3.5 h after Carrageenan
# Experimental: Inhibition of the Carrageenan-induced edema. Edema was induced in the right hind paw of Fisher 344 rats (150-200 g) by the intradermal injection of 0.1 mL 2% Carrageenan in water. Both sexes were used. Females pregnant were excluded. Each group was composed of 6 animals. The experiment was performed twice for validation. The animals, which have been bred in our laboratory, were housed under standard conditions and received a diet of commercial food pellets and water ad libitum during the maintenance, but they were entirely fasted during the experiment period. Nitrone 23 as well as of the standard drug indomethacin in 0.01 mmol/kg body weight, were diluted in water with few drops of Tween 80 and ground in a mortar before use and they were given intraperitoneally simultaneously with the Carrageenan injection. The rats were euthanized 3.5 h after Carrageenan administration. The difference between the weight of the injected and uninjected paws was calculated for each animal. The change in paw weight was compared with that in control animals (treated with water/or Tween-water) and expressed as a percent inhibition of the edema % ICPE values (Table 2). Values % ICPE are the mean from two different experiments (n=6 animals each time) with a standard error of the mean less than 10%.
melting point,SMILES,viability at 0.3 µM [4],viability at 1 µM [4],viability at 10 µM [4],viability at 100 µM [4],other results
–,"Cc1c(C)c2c(c(C)c1O)CCC(C)(C(=O)O)O2 (stereo not shown) [Trolox, reference compound]",–,–,–,–,ILPO (%) / AAPH (%) [1]: 63% and 88%; ILPO (%) / AAPH (%) ([1]; listed as trolox): 88%; *OH (%) [2]: 73%; ABTS*+ (%) [3]: 91%
163 to 165 °C,"Cc1ccc2c(c1)cc(/C=[N+](\[O-])Cc1ccccc1)c(Cl)[n+]2[O-] [Compound 29, (Z)—N-Benzyl-1-(2-chloro-6-methyl-1-oxidoquinolin-3-yl)methanimine oxide]",8.28 ± 0.51%,< 0%,< 0%,< 0%,–
–,"CC(Cc1ccc(O)c(O)c1)C(C)Cc1ccc(O)c(O)c1 (stereo not shown) [NDGA, nordihydroguaiaretic acid, reference compound]",–,–,–,–,DPPH (%) [5]: 93%
–,"COc1ccc2c(c1)c(CC(=O)O)c(C)n2C(=O)c1ccc(Cl)cc1 [Indomethacin, indomethacin, reference compound]",–,–,–,–,ICPE % [6]: 47 ± 1.0 %
211 to 214 °C,"Cc1ccc2c(c1)cc(/C=[N+](\[O-])C(C)(C)C)c(Cl)[n+]2[O-] [Compound 30, (Z)—N-tert-Butyl-1-(2-chloro-6-methyl-1-oxidoquinolin-3-yl)methanimine oxide]",13 ± 0.47%,37.5 ± 1.94%,< 0%,< 0%,–
